Assay in all cases: relative viability (nuclei count vs DMSO), 5 days (fraction); higher = more cells survive
Compound in test [1]: C1=CC=C2C(=C1)N=C(S2)C(C#N)C3=NC(=NC=C3)NCCC4=CN=CC=C4 + CCNC(=O)c1noc(-c2cc(C(C)C)c(O)cc2O)c1-c1ccc(CN2CCOCC2)cc1 [Luminespib] (partner 0.01 µM)
Put shortly:
(§1)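 Cells from lung cancer lines were seeded into 1536-well plates and, one day later, dosed by pin tool. Treatments were either a single drug or a fixed dose of an anchor drug with five library-drug doses (not always all listed) in √10 steps. After 5 days, nuclei were stained in a one-step fixation (final 0.05% Triton X-100, 1% formaldehyde, 1 ug/ml Hoechst) and counted on 4× images, and relative viability is the treated-to-vehicle nuclei ratio, as the median of duplicate plates.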

Compound in test [2]: C1=CC=C2C(=C1)N=C(S2)C(C#N)C3=NC(=NC=C3)NCCC4=CN=CC=C4 + CS(=O)(=O)CCNCc1ccc(-c2ccc3ncnc(Nc4ccc(OCc5cccc(F)c5)c(Cl)c4)c3c2)o1 [Lapatinib] (partner 2 µM)
Put shortly: as §1

Compound in test [3]: C1=CC=C2C(=C1)N=C(S2)C(C#N)C3=NC(=NC=C3)NCCC4=CN=CC=C4 + C[C@]1(O)C[C@@H](c2nc(-c3ccc4ccc(-c5ccccc5)nc4c3)c3c(N)nccn32)C1 [Linsitinib] (partner 1 µM)
Put shortly:
as §1

Compound in test [4]: C1=CC=C2C(=C1)N=C(S2)C(C#N)C3=NC(=NC=C3)NCCC4=CN=CC=C4 + Cc1nc(Nc2ncc(C(=O)Nc3c(C)cccc3Cl)s2)cc(N2CCN(CCO)CC2)n1 [Dasatinib] (partner 0.075 µM)
In outline: as §1

On to UMC-11, for which the relative viability turned out to be 0.735 in test [1] (first compound 0.005 µM); 1.04 in test [1] (first compound 0.01581 µM); 0.861 in test [1] (first compound 0.05 µM); 1.03 in test [1] (first compound 0.1581 µM); 0.957 in test [1] (first compound 0.5 µM); 0.902 in test [2] (first compound 0.005 µM). Also, the relative viability was 0.877 in test [2] (first compound 0.01581 µM); 0.843 in test [2] (first compound 0.05 µM); 1.59 in test [2] (first compound 0.1581 µM); 0.901 in test [2] (first compound 0.5 µM); 0.809 in test [3] (first compound 0.005 µM); 0.968 in test [3] (first compound 0.01581 µM). The relative viability turned out to be 0.967 in test [3] (first compound 0.05 µM); 1.1 in test [3] (first compound 0.1581 µM); 0.917 in test [3] (first compound 0.5 µM); 0.257 in test [4] (first compound 0.005 µM); 0.481 in test [4] (first compound 0.01581 µM); 0.447 in test [4] (first compound 0.05 µM). In addition, the relative viability in test [4] (first compound 0.1581 µM) is 0.583; in test [4] (first compound 0.5 µM), 0.379.

(Values after the supplement of paper PMC10307832.)
